We go through 6 compounds from US11702449B2, “Angiogenesis-inhibiting peptide and composition for preventing and treating angiogenesis-related disease comprising same as active ingredient” (AVIXGEN INC., priority 2015, dated 2023).

A word on the pIC50: it is the negative decadic logarithm of the IC50, by convention in mol/L. Higher therefore signals a small IC50. What is called half-life is the time needed for the level to fall by half in the phase considered. Read a high half-life as slow loss.

Data set [1] deals with human umbilical cord vascular endothelial cells (HUVECs). It counts as cell-based. On the procedure: Migration analysis for human umbilical cord vascular endothelial cells (HUVECs) was carried out using a Transwell culture plate to which a polycarbonate filter (pore size: 8 μm) with a diameter of 6.5 mm was attached. A surface of the filter was coated with 10 μg of gelatin. Fresh M199 medium (1% fetal bovine serum) containing VEGF (10 ng/ml) was added into a lower compartment of the Transwell plate, HUVECs (1×10^6 cells/100 μl) which had reacted with 0.15 nM or 1.5 nM peptides at room temperature for 30 minutes were carefully transferred to an upper compartment of the plate. The resulting HUVECs were cultured in a CO2-constant temperature and humidity chamber for 4 hours, and the cells migrated under the Transwell filter were stained by H&E staining and quantified using an optical microscope.

Data set [2] in a line: Peptide stability analysis in human serum (HPLC). To be noted: for half-life at 1 mg/mL: pH 7.4, human serum. It is filed as in vitro ADME. Here is the method:
(§1) Serum was separated by centrifugation (tabletop centrifuge, 3000 rpm, 20 min) of blood obtained from a healthy person. The serum was filtrated using a filter (Millipore) with a pore size of […], and then 50 μl of the human serum was mixed with 100 μg of RLYE (SEQ ID NO: 2), R(D)LYE (SEQ ID NO: 6), RLYE-NH2 (SEQ ID NO: 3) or Ac-RLYE (SEQ ID NO: 1) (100 μg/50 PBS, pH 7.4), and incubated by time at a constant temperature of 37° C. A peptide concentration of the sample was calculated by a peak area after the sample was separated by C18 reverse phase high-performance liquid chromatography (HPLC; Vydac protein and peptide C18 column, 0.1% trifluoroacetate in H2O for equilibration, and 0.1% trifluoroacetate in acetonitrile for elution).

A further data set has as its system HUVECs. Kind of data set: Tube formation of vascular endothelial cells on Matrigel (VEGF-induced). It counts as cell-based, human. Here is the method: A degree of tube formation of HUVECs was determined using growth factor-reduced Matrigel. 250 μl of the Matrigel (10 mg protein/ml) was added into a 24-well plate to allow polymerization for 30 minutes at 37° C. HUVECs cultured in M199 (1% fetal bovine serum) medium for 6 hours were carefully transferred onto the Matrigel in the culture plate at a density of 2×10^5 cells/well, and VEGF (10 ng/ml) were cultured alone or with peptides (0.15 nM) at 37° C. for 20 hours. Meanwhile, peptides that were reacted in PBS or fresh human serum for 3 hours were also used. The degree of tube formation of HUVECs was visualized using an inverted phase-contrast microscope, and a length of the formed tube was measured and quantified by Image-Pro Plus version 4.5 (Media Cybernetics, San Diego, Calif.).

In another data set the test system is HCT116 xenograft. Description: Human colon cancer (HCT116) xenografted mouse model, tumor size and growth. It counts as in vivo. On the procedure: Human colon cancer cells (HCT116, 1×10^7 cells/100 μl) were subcutaneously injected into the left side of a nude mouse (BALB/c nu/nu, 6 week old, male), and then when a tumor volume reached at least 50 to 70 mm^3 (approx. 7 days), physiological saline (negative control), RLYE (SEQ ID NO: 2) (1.0 mg/kg), R(D)LYE (SEQ ID NO: 6) (1.0 mg/kg) or Ac-RLYE (SEQ ID NO: 1) (1.0 mg/kg; abnormal, experimental group) was intraperitoneally injected once a day. A VEGF neutralizing antibody, bevacizumab, was intraperitoneally injected at 2 mg/kg twice a week (positive control). A tumor size was two-dimensionally measured using calipers. A tumor volume (mm^3) was calculated by the formula: width^2×length×0.52.
On the technique in general: In xenograft studies the graft and the host belong to different species.

Data set [3] has as its system tumor vessels of HCT116 xenograft. Description: Measurement of tumor angiogenesis (FITC-isolectin B4 staining). It counts as in vivo, mouse. To be noted: FITC-isolectin B4 staining of tumor tissue. Here is the method: Tumor tissue was fixed with 10% formalin, and inserted into paraffin. A slide was prepared using a tumor tissue section, immersed in xylene to remove paraffin, and rehydrated by stepwise treatment with 100%, 95%, 80%, and 70% ethanol. Afterward, the slide was washed with deionized water several times at room temperature. To inhibit the intracellular activity of a peroxidase, the tissue section was reacted in 0.3% hydrogen peroxide-containing methanol for 15 minutes, and washed with PBS three times. The tissue section was reacted in 3% goat serum-containing PBS for 2 hours at room temperature, and reacted with FITC-isolectin B4 ([…]; Vector Laboratories) for 1 hour. The tissue section was washed with PBS three times and then a permanent slide was prepared using a cryo-mount solution (OCT mouting medium, Tissue Tek, Sakura Finetek), and then tumor vessels were visualized using a fluorescence microscope.

For data set [4], the system named is choroidal neovascularization. Kind of data set: Laser-induced choroidal neovascularization mouse model. It is filed as in vivo. On the procedure: To prepare a laser-induced choroidal neovascularization animal model, a Bruch membrane between a retinal layer and a choroidal layer was destroyed by irradiating the mouse retina with a diode laser at an intensity of 400 mW and a duration of 50 ms, and then choroidal neovascularization occurred over 14 days. The retinas of 6 week-old male C57BL/6 mice were irradiated with a laser under the above conditions, the formation of a lesion was confirmed through a safety inspection on day 10, and 1 μl of a 1.5 mM EYLR (SEQ ID NO: 5), RLYE (SEQ ID NO: 2) or Ac-RLYE (SEQ ID NO: 1) solution was intravitreally injected. Here, the same amount of saline was injected into the control group. After 4 days (14 days after the laser irradiation), an experiment for analyzing a therapeutic effect was carried out by extracting the eyeballs of the mice. The extracted eyeballs were fixed in 4% paraformaldehyde for 12 hours, and embedded in paraffin. Sections with a thickness of 4 μm were prepared from paraffin tissue, and subjected to H&E staining. Afterward, an image of a section with the largest choroidal neovascular membrane area was taken from each subject, and the area of the choroidal neovascular membrane was quantitatively analyzed using ImageJ program (NIH, Bethesda, Md., USA). In the saline-injected control group, the average of the choroidal neovascular areas was represented as 100%, and a therapeutic effect of each treatment group was analyzed. Meanwhile, 1 ml (1.25 mg) of FITC-dextran (250 kDa) was injected into the left ventricle one hour before extraction of the mouse eyeball to allow systemic perfusion. After extraction, the eyeball was fixed in 4% paraformaldehyde for 1 hour. Then, the cornea and the crystalline lens were cut off by scissors, the retina was carefully removed using forceps to prepare a complex of retina pigment epithelium/choroid/sclera tissues. The retina flat-mounted complex tissue was observed under a fluorescence microscope and photographed.

For the next data set, the system named is retinal vascular leakage. Description: Streptozotocin (STZ)-induced diabetic retinopathy mouse model, retinal vascular leakage. It counts as in vivo. Particulars: STZ diabetic mice. Here is the method: A freshly prepared STZ solution (100 mM) in a citrate buffer (100 mM, pH 4.5) was intraperitoneally injected at 150 mg/kg into the mice, and to prevent hypoglycemic shock, 10% sucrose was sufficiently provided. After two days, blood glucose was measured using an Accu-Chek Performa blood glucose meter (Roche Diagnostics GmbH, Germany), and when non-fasting blood glucose within 1 to 2 weeks was maintained at 300 mg/dl or more, the mice were used as diabetic animal models. The diabetes-induced mice were anesthetized with 2% avertin, and 1 μl of a 1.5 mM EYLR (SEQ ID NO: 5), RLYE (SEQ ID NO: 2) or Ac-RLYE (SEQ ID NO: 1) solution was intravitreally injected. Here, the same amount of PBS was injected into the control group. The peptide was injected, and after 24 hours, 1 ml (1.25 mg) of FITC-dextran (250 kDa) was injected into the left ventricle of each mouse to allow circulation for approximately 5 minutes. The mice were euthanized by cervical dislocation, and the eyeballs were extracted and fixed in 4% paraformaldehyde at room temperature for 1 hour. The retina was isolated from the fixed eyeball to prepare a retinal flat mount, and vascular leakage was observed under a confocal microscope. Meanwhile, the fluorescence of FITC-dextran leaked from retinal vessels was measured using Fluoview software.

Another data set is described as follows: Peptide stability in PBS. To be noted: incubated in PBS at 37° C. It is filed as physicochemical. Here is the method: as §1
To evaluate RLYE (SEQ ID NO: 2) stability, an RLYE peptide (SEQ ID NO: 2) was added to each of PBS and human serum, and incubated by time at a constant temperature of 37° C.

[5] abbreviates: 1 μl of 1.5 mM solution intravitreal, H&E area analysis.

pIC50: −log10 of the molar value. Square brackets hold non-standard residues; d marks the D form. Peptide text beside a SMILES is read from it.

The compound `CC(=O)N[C@@H](CCCNC(=N)N)C(=O)N[C@@H](CC(C)C)C(=O)N[C@@H](Cc1ccc(O)cc1)C(=O)N[C@@H](CCC(=O)O)C(N)=O` [Ac-RLYE-NH2] (Ac-RLYE-NH2) had a pIC50 in data set [1] of 7.10.
Compound `CC(=O)N[C@@H](CCCNC(=N)N)C(=O)N[C@@H](CC(C)C)C(=O)N[C@@H](Cc1ccc(O)cc1)C(=O)N[C@@H](CCC(=O)O)C(=O)O` [Ac-RLYE] (Ac-RLYE-OH; C-terminus assumed) gave a half-life at 1 mg/mL in data set [2] (37° C.) of 8.8 h. Also, in data set [1], the pIC50 was 10.30. The “inhibition of VEGF-induced tube formation” value in the data set on HUVECs (peptides pretreated with PBS for 3 hours) is on record as “effectively inhibited”. Further, the “inhibition of VEGF-induced tube formation” value with HUVECs (peptides pretreated with human serum for three hours) is listed as “effectively inhibited”. Besides, the “anticancer effect compared with RLYE” value in the data set on HCT116 xenograft (1.0 mg/kg/day intraperitoneal, HCT116 nude mouse) is given as “higher than that of RLYE”. Also, the “effect on size and growth of tumor” value in the data set with HCT116 xenograft (1.0 mg/kg/day intraperitoneal, once a day, HCT116 nude mouse) is “inhibited the size and growth of a tumor”. In addition, in the data set with HCT116 xenograft (peptide 1.0 mg/kg/day i.p., bevacizumab 2.0 mg/kg twice a week), the “anticancer effect compared with bevacizumab” value is “a little lower than that of the positive control bevacizumab”. Besides, the “effect of inhibiting cancer angiogenesis compared with RLYE” value in data set [3] is “higher than that of RLYE”. In data set [4] (setting [5]), the “choroidal neovascularization inhibition compared with RLYE” value was “highly effective compared to RLYE” and the “effect on choroidal neovascularization” value is reported as “effectively reduced”. Further, in data set [4] (FITC-dextran, retinal flat mount technique), the “choroidal neovascularization inhibition compared with RLYE, retinal flat mount” value is given as “higher effect of inhibiting choroidal neovascularization than RLYE”. The “effect on retinal vascular leakage” value in the data set with retinal vascular leakage (1 μl of 1.5 mM solution intravitreal, 24 hours) is given as “effectively inhibited”. Moreover, in the data set on retinal vascular leakage (intravitreal), the “inhibitory effect on retinal vascular leakage compared with RLYE” value was “higher inhibitory effect on blood vascular leakage than RLYE”.
In turn, `CC(C)C[C@H](NC(=O)[C@H](N)CCCNC(=N)N)C(=O)N[C@@H](Cc1ccc(O)cc1)C(=O)N[C@@H](CCC(=O)O)C(=O)O` [R(D)LYE] (H-[dR]LYE-OH; N-terminus and C-terminus assumed) showed a half-life at 1 mg/mL in data set [2] (37° C.) of 7 h. This compound also had a pIC50 in data set [1] of 10.22.
Consider `CC(C)C[C@H](NC(=O)[C@@H](N)CCCNC(=N)N)C(=O)N[C@@H](Cc1ccc(O)cc1)C(=O)N[C@@H](CCC(=O)O)C(=O)O` [RLYE, Arg-Leu-Tyr-Glu, reference compound] (H-RLYE-OH; N-terminus and C-terminus assumed), for which the “RLYE degradation induced by albumin” value in data set [2] (albumin added, 37° C.) is “did not induce”. In addition, the “RLYE degradation by human serum with bestatin” value in data set [2] (aminopeptidase B inhibitor bestatin added) was “effectively inhibited”. For the same compound, in data set [2] (37° C.), the half-life at 1 mg/mL is 1.2 h. For the same compound, the “degradation in PBS” value in the data set “Peptide stability in PBS” is “did not occur”. The same compound showed a pIC50 in data set [1] of 10.10.
The compound `CC(C)C[C@H](NC(=O)[C@@H](N)CCCNC(=N)N)C(=O)N[C@@H](Cc1ccc(O)cc1)C(=O)N[C@@H](CCC(=O)O)C(N)=O` [RLYE-NH2] (H-RLYE-NH2; N-terminus assumed) had a half-life at 1 mg/mL in data set [2] (37° C.) of 1.3 h. This compound also showed a pIC50 in data set [1] of 9.96.
For “EYLR: reverse-sequence of the RLYE peptide [reference compound]”, the “effect on choroidal neovascularization” value in data set [4] (setting [5]) is “had no change”.
